How the values were obtained:
[1] = test system: subjects with pain following bunionectomy; experiment: Randomized, double-blind, placebo-controlled study of efficacy and safety in subjects with pain following bunionectomy; conditions: for Mean SPID48: oral, NPRS 0-48 h
Text: Bunionectomy is a well-established, multi-dose, surgical, acute pain model. A randomized, double-blind study design was used to avoid observer bias and reduce symptoms or outcomes arising from the subjects' knowledge of treatment.
Male and female patients between the ages of 18 and 75 years (inclusive) with pain that is ≥4 on an 11-point Numeric Pain Rating Scale (NPRS) and is moderate or severe on the Verbal Categorical Rating Scale (VRS) after bunionectomy are included in the study.
The investigational drug was administered orally in 10 mg tablets. […] The investigational drug was administered every 12 hours (q12 h). A low, mid, and high dosing regime were tested. The first dose in the low dosing regime was 20 mg, and the subsequent doses were 10 mg g12 h. The first dose in the mid dosing regime was 60 mg, and the subsequent doses were 30 mg g12 h. The first dose in the high dosing regime was 100 mg, and the subsequent doses were 50 mg g12 h.
After a screening period, subjects receive a primary unilateral first metatarsal bunionectomy repair on Day minus one under regional anesthesia (Mayo and popliteal block). A continuous popliteal sciatic block infusion (0.2% ropivacaine) is started after surgery, and remains in place until approximately 3 AM on Day 1. After removal of the popliteal sciatic block, each subject is randomized when the subject requests the first dose of study drug for pain relief and reports pain ≥4 on the NPRS and moderate or severe pain on the VRS.
Randomization was stratified by site and baseline NPRS (<8 versus ≥8). To maintain the blind, all subjects receive the same number of capsules in a double-dummy design.
HB/APAP placebo capsules were administered every 6 hours (q6 h).
The final dose of HB/APAP was given 42 hours after the first dose.
11-point (0 to 10) Numeric Pain Rating Scale: NPRS scores are frequently used in bunionectomy studies and are recognized by the FDA as a valid pain intensity measure. On the 11-point NPRS, a score of 0 denotes no pain, and a score of 10 denotes the worst pain intensity imaginable. Subjects reported their pain on the 11-point NPRS immediately before their first dose of the study drug (baseline NPRS score) and at intervals over 48 hour period (i.e. 0.5, 1, 1.5, 2, 3, 4, 5, 6, 8, 12, 16, 20, 24, 28, 32, 36, 40, 44, and 48 hours (±5 minutes)) after the first dose of the study drug. Pain intensity is also recorded on the NPRS immediately before each administration of rescue medication. Pain intensity scores that are collected within 4 hours after a dose of rescue medication are deemed missing, and the missing values are imputed as the intensity recorded immediately before the administration of rescue medication.
SPID-48 is the sum of the pain intensity difference (PID) over the 48 hour time period. A pain intensity score of 0 (no pain) to 10 (worse possible pain) is obtained before starting the study and throughout the 48 time period. The pain score at each assessment time is subtracted from the baseline pain score to provide the total sum score or SPID-48. A higher SPID-48 is better and indicates a reduction in pain intensity compared to the baseline score.
4-point Verbal Categorical Rating Scale: Subjects report their pain on the 4-point VRS (none, mild, moderate, or severe) immediately before their first dose of the study drug (baseline VRS).
Safety evaluations include adverse events, clinical laboratory assessments, clinical evaluation of vital signs, electrocardiograms, and physical examinations.

human NaV 1.8 = human NaV 1.8 (Homo sapiens, UniProt Q9Y5Y9); experiment: E-VIPR assay detecting and measuring NaV inhibition properties; type: cell-based; conditions: HEK cells expressing a truncated form of human NaV 1.8; E-VIPR membrane potential readout
human NaV 1.8, sequence (Q9Y5Y9 126-1722 limits assumed): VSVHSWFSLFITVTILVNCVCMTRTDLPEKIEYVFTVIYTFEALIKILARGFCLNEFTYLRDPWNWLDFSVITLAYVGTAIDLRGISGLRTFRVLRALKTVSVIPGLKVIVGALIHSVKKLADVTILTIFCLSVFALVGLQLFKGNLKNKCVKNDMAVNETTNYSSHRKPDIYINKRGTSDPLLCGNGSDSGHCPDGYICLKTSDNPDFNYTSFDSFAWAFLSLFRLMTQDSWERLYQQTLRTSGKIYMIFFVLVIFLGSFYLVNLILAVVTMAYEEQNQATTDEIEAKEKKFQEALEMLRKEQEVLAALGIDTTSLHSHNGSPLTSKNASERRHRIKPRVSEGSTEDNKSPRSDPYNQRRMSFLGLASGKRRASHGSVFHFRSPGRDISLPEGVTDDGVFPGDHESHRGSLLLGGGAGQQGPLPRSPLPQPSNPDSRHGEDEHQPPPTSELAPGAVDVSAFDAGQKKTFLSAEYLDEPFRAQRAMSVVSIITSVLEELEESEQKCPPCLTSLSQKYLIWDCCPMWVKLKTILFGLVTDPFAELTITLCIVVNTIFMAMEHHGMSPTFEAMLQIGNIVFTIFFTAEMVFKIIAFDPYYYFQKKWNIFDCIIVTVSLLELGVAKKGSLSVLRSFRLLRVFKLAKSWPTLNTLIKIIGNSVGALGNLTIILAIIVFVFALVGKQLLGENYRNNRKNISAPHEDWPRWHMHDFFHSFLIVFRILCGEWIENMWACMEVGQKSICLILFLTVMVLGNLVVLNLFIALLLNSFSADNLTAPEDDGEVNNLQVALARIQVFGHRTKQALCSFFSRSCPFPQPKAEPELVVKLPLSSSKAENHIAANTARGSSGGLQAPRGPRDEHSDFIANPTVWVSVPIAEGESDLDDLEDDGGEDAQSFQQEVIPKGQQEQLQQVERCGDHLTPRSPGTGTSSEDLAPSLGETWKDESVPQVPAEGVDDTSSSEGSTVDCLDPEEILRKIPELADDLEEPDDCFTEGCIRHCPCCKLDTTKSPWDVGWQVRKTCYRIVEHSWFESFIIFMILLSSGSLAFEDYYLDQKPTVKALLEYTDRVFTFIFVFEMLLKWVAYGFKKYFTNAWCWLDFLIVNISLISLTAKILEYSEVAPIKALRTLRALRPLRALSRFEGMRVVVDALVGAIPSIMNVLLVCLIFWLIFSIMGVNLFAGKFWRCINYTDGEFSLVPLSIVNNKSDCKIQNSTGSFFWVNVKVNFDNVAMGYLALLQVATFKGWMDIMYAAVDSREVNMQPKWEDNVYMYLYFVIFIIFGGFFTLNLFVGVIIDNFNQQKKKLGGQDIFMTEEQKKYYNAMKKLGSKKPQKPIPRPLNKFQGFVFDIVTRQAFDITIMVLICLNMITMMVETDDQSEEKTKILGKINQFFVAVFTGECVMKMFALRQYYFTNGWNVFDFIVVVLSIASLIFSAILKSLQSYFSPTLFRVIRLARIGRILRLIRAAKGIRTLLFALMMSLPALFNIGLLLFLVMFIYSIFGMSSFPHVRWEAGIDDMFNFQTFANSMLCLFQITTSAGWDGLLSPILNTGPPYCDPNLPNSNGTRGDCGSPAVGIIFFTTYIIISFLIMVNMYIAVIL
Text: Sodium ion channels are voltage-dependent proteins that can be activated by inducing membrane voltage changes by applying electric fields. The electrical stimulation instrument and methods of use, referred to as E-VIPR, are described in International Publication No. WO 2002/008748 A3 and C.-J. Huang et al. Characterization of voltage-gated sodium channel blockers by electrical stimulation and fluorescence detection of membrane potential, 24 Nature Biotech. 439-46 (2006), both of which are incorporated by reference in their entirety. The instrument comprises a microtiter plate handler, an optical system for exciting the coumarin dye while simultaneously recording the coumarin and oxonol emissions, a waveform generator, a current- or voltage-controlled amplifier, and parallel electrode pairs that are inserted into assay plate wells. […]
5 mM DiSBAC6(3), a voltage sensitive oxonol acceptor (CAS number 169211-44-3; 5-[3-(1,3-dihexylhexahydro-4,6-dioxo-2-thioxo-5-pyrimidinyl)-2-propen-1-ylidene]-1,3-dihexyldihydro-2-thioxo-4,6(1H,5H)-pyrimidinedione), in dry DMSO. The preparation of DiSBAC6(3) is analogous to that of DiSBAC4(3) as described in Voltage Sensing by Fluorescence Resonance Energy Transfer in Single Cells, Gonzalez, J. E. and Tsien, R. Y. (1995) Biophys. […]

[2] = test system: patients undergoing abdominoplasty; experiment: Study in patients undergoing abdominoplasty (NCT05034952); type: in vivo, human
[3] = High-dose: 100 mg first dose/50 mg every 12 hours, n = 60
[4] = Low-dose: 20 mg first dose/10 mg every 12 hours, n = 33
[5] = Mid-dose: 60 mg first dose/30 mg every 12 hours, n = 62

IC50 (human NaV 1.8): < 10 nM
SMILES: COc1c([C@H]2[C@H](C(=O)Nc3ccnc(C(N)=O)c3)O[C@@](C)(C(F)(F)F)[C@H]2C)ccc(F)c1F (single isomer, unassigned) [Compound 1]
Mean SPID48 [1, 3]: 137.8 | Mean SPID48 difference from placebo [1, 3]: 36.8 | Mean SPID48 [1, 4]: 112.9 | Mean SPID48 difference from placebo [1, 4]: 11.9 | Mean SPID48 [1, 5]: 86.9 | Mean SPID48 difference from placebo [1, 5]: −14.1 | Onset of action ([1]; bunionectomy study): rapid and was sustained through the duration of assessment | SPID48 compared to placebo (primary endpoint), in words ([1]; high dose, recorded on NPRS): statistically significant improvement | SPID48, in words [2]: statistically significant improvement
